Consider 9 compounds from US10703748B2, “Diazanaphthalen-3-yl carboxamides and preparation and use thereof” (Samumed, LLC, priority 2017, dated 2020).

As usually defined, the EC50 is the concentration needed to bring the measured effect to its halfway point.

SMILES strings stand for the structures.

Assay [1] deals with IL-6. Nature of the assay: IL-6 inhibition in LPS-stimulated human peripheral blood mononuclear cells (HTRF). The following applies: Homo sapiens, PBMC; for EC50: 22 h; for inhibition at 10 µM: read-out: percentage in parentheses after EC50 >10.
Assay [2] concerns SW480 colon carcinoma cells. Nature of the assay: Cell viability assay (CellTiter-Glo). The following applies: Homo sapiens; for EC50: SW480, 96 h; for inhibition at 10 µM: SW480, read-out: percent inhibition at 10 μM.
The subject of assay [3] is Tau phosphorylation at Threonine 212 (pT212Tau). The assay can be described thus: Tau phosphorylation at Threonine 212 (pT212Tau) in Dyrk1a- and MAPT-overexpressing HEK293T cells, sandwich ELISA. The assay is classed as cell-based. The following applies: Homo sapiens, HEK-293T, overnight (16-18 hours), read-out: Thr212 EC50. As to the method:
HEK293T cells (transfectable human embryonic kidney cells) were cultured in DMEM medium supplemented with 10% FBS and 1% penicillin/streptomycin.
HEK293T cells were transiently transfected to overexpress Dyrk1a and microtubule-associated protein Tau (MAPT) genes. Specifically, Dyrk1a and MAPT expression vectors were obtained from OriGene (10 μg of each, catalog numbers SC314641 and RC216166, respectively). A MaxiPrep for each vector was ordered and received from GeneWiz, yielding 874.5 μg (resuspended at […]) of the Dyrk1a expression vector, and 898 μg (resuspended at […]) of MAPT.
HEK293T cells were seeded at 1.0×10^7 cells in 10 mL per T-75 flask. […] One T-75 flask was designated as a no-vector negative control for pT212Tau signal.
After 4-6 hours of incubation in transfection reagents, transiently double transfected HEK293T cells were dissociated by treatment with trypsin EDTA and seeded at 1.0×10^5 cells in 100 μL per well in 96-well plates. No-vector negative controls were seeded in separate 96-well plates to avoid the risk of the negative control cells picking up the overexpression during incubation. At the time of seeding, DMSO-resuspended Samumed compounds were dispensed to eight wells as a serial dilution from 10 μM to 4.6 nM final concentration in medium, or at 0.12 μM to 0.05 nM with particularly potent compounds. Cells were exposed to the representative compounds overnight (16-18 hours) in a 37° C. incubator.
96-Well flat-bottom plates were coated with 100 μL per well anti-HT7 capture antibody (ThermoFisher, MN1000) diluted 1:300 in 1×PBS at 4° C. overnight, with shaking at 500 rpm. After overnight capture antibody incubation, coated plates were washed four times with 200 μL per well of 1×PBS-0.05% Tween-20, and blocked for 1 hour with 200 μL per well of 1×PBS with 2% BSA. After 1 hour of blocking, plates were washed four times with 200 μL per well of 1×PBS-0.05% Tween-20, prior to sample loading.
Wells of compound-treated cells were visually checked for cell death before being washed with 200 μL per well of 1×DPBS supplemented with phosphatase inhibitor diluted to 1×. Cells were then lysed with 100 μL 1×RIPA buffer supplemented with phosphatase and protease inhibitors (each diluted to a final 1×). Cells were shaken at 500 rpm, 4° C. for 20 minutes prior to further lysis (via manual scraping) and transfer to 96-well V-bottom collection plates (Corning, 3894). V-bottom plates were centrifuged at 4000 rpm, 4° C., for 15 minutes, and 100 μL of lysate supernatant from each well was directly tested for pT212Tau signal by sandwich ELISA.
Specifically, lysates were directly transferred to the coated and blocked ELISA plates for 2 hours before plates were washed four times with 200 μL per well of 1×PBS-0.05% Tween-20 and probed with 100 μL per well of anti-pT212Tau antibody (ThermoFisher, 44-740G) diluted 1:200 in 1×PBS for 2 hours. Plates were washed four times with 200 μL per well of 1×PBS-0.05% Tween-20 and probed with 100 μL per well of anti-rabbit/HRP conjugate (Cell Signaling Technology, 7074S) diluted 1:600 in 1×PBS for 1 hour. Plates were washed four times with 200 μL per well of 1×PBS-0.05% Tween-20 before 100 μL per well of TMB substrate solution (ThermoFisher, N301) was added. When colour development was observed, 100 μL per well of stop solution (ThermoFisher, N600) was added, and colorimetric detection of pT212Tau signal was read at 450 nm with the Cytation 3 Cell Imaging Multi-Mode Reader (BioTek). The signal was used to plot, draw the curves fitting, and determine the EC50 values in GraphPad Prism for tested representative compounds.
For orientation: In an ELISA, binding on a coated surface is turned into a signal by an enzyme label.

The target of assay [4] is DYRK1A kinase (Homo sapiens, UniProt Q13627). The assay can be described thus: DYRK1A kinase activity (Ser/Thr 18 peptide Z-lyte FRET assay).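 Also: kinase activity read as coumarin/fluorescein emission ratio after development step, with unphosphorylated and phosphorylated peptide forms setting 0% and 100% controls, values from dose-response curves.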 It counts as biochemical. The following applies: recombinant DYRK1A, 30 μM ATP, one hour at room temperature.
Procedure: Representative compounds were screened using the assay procedure for DYRK1A kinase activity as described below.
Each compound was dissolved in DMSO as a 10 mM stock and used to prepare compound source plates.
This is a non-radioactive assay using fluorescence resonance energy transfer (FRET) between coumarin and fluorescein to detect kinase activity which is represented as a ratio of coumarin emission/fluorescein emission.
The mixture was allowed to incubate with the representative compounds for one hour at room temperature. All reactions were performed in duplicate. Unphosphorylated (“0% Control”) and phosphorylated (“100% control”) forms of Ser/Thr 18 served as control reactions. Additionally, an 11-point dose-response curve of Staurosporine (1 uM top) was run to serve as a positive compound control.
After incubation, Development Reagent A was diluted in Development Buffer then added to the reaction and allowed to further incubate for one hour at room temperature.
Dose-response curves were generated and inhibitory concentration (IC50) values were calculated using non-linear regression curve fit in the Dotmatics' Studies Software (Bishops Stortford, UK).
The test system of assay [5] is α-smooth muscle actin (aSMA) positive LL29 cells. Nature of the assay: Inhibition of the fibrotic process: αSMA staining in TGF-β1 treated LL29 fibroblasts from IPF patients. The following applies: Homo sapiens, Fibroblast; for EC50: 96 h; for inhibition at 10 µM: read-out: percentage in parentheses after EC50 >10.
Assay [6] concerns Tau phosphorylation at Ser396 (pSer396). Nature of the assay: Tau phosphorylation at Ser396 (pSer396) in SH-SY5Y cells, ELISA / western blot.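 Also: decrease in pSer396 Tau measured in lysates of treated cells by colorimetric ELISA or chemiluminescent western blot, same pSer396 antibody for both.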 The assay is classed as cell-based, human. Particulars: Homo sapiens; SH-SY5Y cells, overnight (16-18 h); read-out: pSer396 Tau EC50.
Procedure: Two days before treatment, cells were seeded onto 96 well plates at 5×10^4 cells/well.
The above synthesized compounds were screened using the cell assay procedure to assess decrease Tau phosphorylation at Ser396 (pSer396) described below.
Cells were lysed with RIPA buffer complemented with phosphatase and protease inhibitors then lysates were spun down at 12,000 g for 10 min to remove any cellular debris.
Assay [7] concerns Wnt-responsive Sp5-Luc reporter in SW480 colon carcinoma cells. The assay can be described thus: Screening assay for Wnt activity (Sp5-Luc reporter gene assay). The following applies: Homo sapiens; for EC50: SW480; for inhibition at 10 µM: SW480, read-out: percent inhibition at 10 μM.
The target of assay [8] is GSK3β kinase (Homo sapiens, UniProt P49841). The assay can be described thus: GSK3β kinase activity (Ser/Thr 09 peptide Z-lyte FRET assay). The assay is classed as biochemical. The following applies: recombinant kinase, 46 μM ATP, one hour at room temperature; read-out: EC50.
Procedure: Each compound is dissolved in DMSO as a 10 mM stock and used to prepare compound source plates. Serial dilution (1:3, 11-point dose-response curves from 10 μM to 0.0003 μM) and compound transfer was performed using the ECHO 550 (Labcyte, Sunnyvale, Calif.) into 1536-well black-walled round bottom plates (Corning).
This is a non-radioactive assay using fluorescence resonance energy transfer (FRET) between coumarin and fluorescein to detect kinase activity which is represented as ratio of coumarin emission/fluorescein emission.
The mixture is allowed to incubate with the representative compounds for one hour at room temperature. All reactions were performed in duplicate. Unphosphorylated (“0% Control”) and phosphorylated (“100% control”) forms of Ser/Thr 18 serve as control reactions.
After incubation, diluted Development Buffer is added to the reaction and allowed to further incubate for one hour at room temperature.
Dose-response curves are generated and inhibitory concentration (IC50) values are calculated using non-linear regression curve fit in the Dotmatics' Studies Software (Bishops Stortford, UK).
Assay [9] relates to secreted cytokines TNFα, IL-6 and KC-GRO. The assay can be described thus: Secreted cytokines in Lipopolysaccharide-stimulated BV-2 cells (Table 9 does not say which cytokine). Particulars: Mus musculus, BV-2, 5 h; read-out: EC50. It counts as cell-based, mouse.

Chain of GSK3β kinase (P49841 whole entry): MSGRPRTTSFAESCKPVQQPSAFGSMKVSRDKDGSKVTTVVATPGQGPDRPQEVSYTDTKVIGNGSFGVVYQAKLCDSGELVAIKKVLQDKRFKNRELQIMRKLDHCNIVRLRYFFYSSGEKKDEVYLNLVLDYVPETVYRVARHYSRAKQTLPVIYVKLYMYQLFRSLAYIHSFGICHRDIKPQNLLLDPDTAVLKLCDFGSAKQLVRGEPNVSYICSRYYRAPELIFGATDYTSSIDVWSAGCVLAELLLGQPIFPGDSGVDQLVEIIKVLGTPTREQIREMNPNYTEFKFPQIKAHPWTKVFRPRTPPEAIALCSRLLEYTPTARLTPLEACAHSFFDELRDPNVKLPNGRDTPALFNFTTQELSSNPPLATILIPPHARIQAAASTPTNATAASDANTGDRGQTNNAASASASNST

For the compound `Cn1cc(-c2cnc3cnc(NC(=O)c4ccnc(N5CCNCC5)c4)cc3c2)nn1` [Compound 3105, N-(3-(1-Methyl-1H-1,2,3-triazol-4-yl)-1,7-naphthyridin-6-yl)-2-(piperazin-1-yl)isonicotinamide], the EC50 in [1] was greater than 10 µM; in [2] it was 9.75 µM; in [3], 7.8 µM; in assay [4], 0.147 µM; in assay [5], greater than 10 µM; in assay [6], greater than 10 µM. Moreover, the figures for the EC50 in assay [7] and in [8] were 4.16 µM and greater than 10 µM, respectively. The inhibition at 10 µM in assay [1] was 8%; in assay [5], 21.8%.
As for `CN1CCC(Oc2ccc(C(=O)Nc3cc4cc(-c5cnn(C)c5)cnc4cn3)cc2)CC1` [Compound 2865, N-(3-(1-Methyl-1H-pyrazol-4-yl)-1,7-naphthyridin-6-yl)-4-((1-methylpiperidin-4-yl)oxy)benzamide], the EC50 in assay [1] was found to be 9.61 µM; in assay [2] it was 4.38 µM; in assay [9] it was 0.16 µM; in assay [3], 0.122 µM; in [4] it was 0.041 µM; in [5], 5.12 µM. The results for the EC50 in [6], in assay [7] and in [8] were greater than 10 µM, 3.02 µM and greater than 10 µM, respectively.
As for `C[C@H]1CCCN1CC(=O)Nc1cc2nc(-c3cnn(C)c3)ccc2cn1` [Compound 47, (S)—N-(2-(1-methyl-1H-pyrazol-4-yl)-1,6-naphthyridin-7-yl)-2-(2-methylpyrrolidin-1-yl)acetamide], the EC50 in assay [1] was greater than 10 µM; in [2] it was greater than 10 µM; in assay [9], 0.26 µM; in assay [3] it was 0.668 µM; in assay [4] it was 0.036 µM; in assay [5], 7.2 µM. The results for the EC50 in assay [6], in assay [7] and in assay [8] were greater than 10 µM, 5.21 µM and 0.2 µM, respectively. In addition, the inhibition at 10 µM turned out to be 0% in assay [1] and 35.2% in assay [2].
As to `Cn1cc(-c2cnc3cnc(NC(=O)c4ccnc(N5CCNCC5)c4)cc3c2)cn1` [Compound 2866, N-(3-(1-Methyl-1H-pyrazol-4-yl)-1,7-naphthyridin-6-yl)-2-(piperazin-1-yl) isonicotinamide], the EC50 in [1] was greater than 10 µM; in [2], 2.48 µM; in assay [3], 1.6 µM; in assay [4], 0.041 µM; in assay [5], greater than 10 µM; in assay [6], greater than 10 µM. In addition, the EC50 in [7] is 2.2 µM; in assay [8] it was greater than 10 µM. Moreover, the inhibition at 10 µM in [1] turned out to be 0%; in assay [5], 47.4%.
Take `Cn1cc(-c2cnc3cnc(NC(=O)c4ccc(OC5CCNCC5)cc4)cc3c2)cn1` [Compound 2864, N-(3-(1-Methyl-1H-pyrazol-4-yl)-1,7-naphthyridin-6-yl)-4-(piperidin-4-yloxy)benzamide]: the EC50 in assay [1] was greater than 10 µM; in assay [2], 4.06 µM; in [3], 0.31 µM; in assay [4], 0.039 µM; in assay [5] it was greater than 10 µM; in assay [6], greater than 10 µM. Also, the EC50 in assay [7] and in [8] was greater than 10 µM each time. Further, the results for the inhibition at 10 µM in assay [1], in assay [5] and in assay [7] were 10%, 7.3% and 47.3%, respectively.
Regarding `CN1CCN(c2cc(C(=O)Nc3cc4cc(-c5cnn(C)c5)cnc4cn3)ccn2)CC1` [Compound 2867, N-(3-(1-methyl-1H-pyrazol-4-yl)-1,7-naphthyridin-6-yl)-2-(4-methylpiperazin-1-yl)isonicotinamide], the EC50 in [1] is greater than 10 µM; in assay [2] it was 4.05 µM; in [3], 0.046 µM; in assay [4] it was 0.036 µM; in assay [5], 5.38 µM; in assay [6], greater than 10 µM. The values for the EC50 in assay [7] and in assay [8] were 9.16 µM and greater than 10 µM, respectively. Besides, the inhibition at 10 µM in [1] was found to be 5.2%.
In the case of `Cn1cc(-c2ccc3nnc(NC(=O)C4CC4)cc3c2)cn1` [Compound 1815, N-(6-(1-Methyl-1H-pyrazol-4-yl)cinnolin-3-yl)cyclopropanecarboxamide], the EC50 in assay [1], in [2], in assay [3], in [4], in assay [5] and in [6] was greater than 10 µM throughout. The EC50 in assay [7] and in [8] was greater than 10 µM each time. For the same compound, the inhibition at 10 µM in [1] came out at 7%; in [2], 15.8%; in assay [5], 33.5%; in [7], 12.9%.
As for `CC(C)n1cc(C(=O)Nc2cc3nc(-c4cncc(NC5CCN(C)CC5)n4)ccc3cn2)cn1` [Compound 4565, 1-Isopropyl-N-(2-(6-((1-methylpiperidin-4-yl)amino)pyrazin-2-yl)-1,6-naphthyridin-7-yl)-1H-pyrazole-4-carboxamide], the EC50 was greater than 10 µM in [1]; 1.55 µM in assay [2]; 1 µM in assay [9]; 0.042 µM in assay [3]; 0.012 µM in [4]; greater than 10 µM in assay [5]. For the same compound, the EC50 in assay [7] is 1.95 µM; in [8], greater than 10 µM. The figures for the inhibition at 10 µM in assay [1] and in [5] were 10.2% and 31%, respectively.
Consider `CN1CCN(c2cc(C(=O)Nc3cc4cc(-c5cn(C)nn5)cnc4cn3)ccn2)CC1` [Compound 3098, N-(3-(1-Methyl-1H-1,2,3-triazol-4-yl)-1,7-naphthyridin-6-yl)-2-(4-methylpiperazin-1-yl)isonicotinamide], for which the EC50 was greater than 10 µM in assay [1]; greater than 10 µM in assay [2]; 2 µM in [3]; 0.096 µM in assay [4]; greater than 10 µM in [5]; greater than 10 µM in assay [6]. Further, the EC50 in assay [7] and in [8] was greater than 10 µM in each case. Also, the inhibition at 10 µM stood at 4.7% in [1], 14.4% in assay [2], 8.3% in [5] and 14.9% in assay [7].
